Measurements: patent US10221153B2, “Dibenzothiophene compounds” (Saint Louis University, priority 2017, dated 2019)
“Also recorded” adds a separate entry of the source.

Legend:
[1] = Quantum yield by single-point method; conditions: single-point method in EtOH
[2] = tested on: HeLa human cervical carcinoma cell line; assay: Cell imaging of HeLa cells incubated with compound, fluorescence microscopy; assay type: cell-based; conditions: 1 μM
Protocol: HeLa human cervical carcinoma cell line was obtained from ATCC (Manassas, Va.). The cells were cultured in a humidified incubator at 5% CO2 and 37° C. The cell line was grown in D-MEM (Invitrogen) high glucose supplemented with 10.0% fetal bovine serum (Invitrogen, Carlsbad, Calif.) and 1.0% Penicillin/Streptomycin (Invitrogen, Carlsbad, Calif.) for an environment suitable for cell growth. The culture was sub-cultured every three days to maintain normal cell growth.
Sterile glass PDL coated #1.5 cover slips (NeuVitro), pre-incubated with culture medium, were placed in sterile 6-well plates. Single cell suspension of the HeLa (cervical cancer cells taken from patient Henrietta Lacks) cell line was prepared at 5×10^4 cells ml^−1 in the appropriate medium. Volumes of 2.0 mL were pipetted into each of the wells containing the coverslips. The 6-well plate was left overnight at 37.0° C. in a 5.0% CO2 incubator. Following the overnight incubation, the plate was aspirated dry and then fresh culture medium, containing the drug (at 1.0 μM and 0.10% DMSO) in a volume of 2.0 mL, was gently pipetted onto the cell monolayers attached to the glass cover slips. Cells on the cover slips were exposed to the drug for approximately 2 hours. Cells were washed with PBS and treated with 4.0% paraformaldehyde solution prepared in PBS, incubated for 30 minutes at room temperature for […]. Several washes with PBS were completed to ensure excess solution was rinsed away. Glass cover slips were removed and mounted on slides with ProLong Gold Antifade Mountant (ThermoFisher Scientific). The specimen was dried for several minutes and sealed with clear nail polish before visualized under a microscope
Cell Image Captures: All images were captured with a Leica DM 4000 B microscope with a DFC3000G camera (Leica Microsystems, Germany) and 63× oil immersion lens. HeLa cells were staged according to the method above. Leica LASX Core Software (Leica Microsystems, Germany) was used to acquire the images.
Stained cells were clearly observed by exciting the cells with a broadly emitting lamp using DAPI filter set. Luminescence was observed within the cell bodies of the HeLa cells upon excitation of the UV wavelengths. The excitation wavelength was 350 nm and the emission wavelength was approximately 400 nm. FIG. 14 depicts representative images of HeLa cervical cancer cell lines incubated with Compounds 16b, 15b, and 17b (1 μM) for 120 min. Bright field images of cells incubated with compounds 16b, 15b, and 17b are shown in Panels A, D, and G, respectively. Luminescence from each compound (16b, 15b, and 17b) is shown in Panels B, E, and H, respectively, with UV laser radiation.

[3] = Photophysical analysis: absorption, excitation and emission at 10 μM (Example 5); assay type: physicochemical
Protocol: All data were collected on a SHIMAZDU Spectrofluorometer RF-5301PC. Solutions of the respective compounds were prepared in acetonitrile at approximately 1 mM concentration. Solutions (4 mL) were added to a freshly washed quartz cuvette for measurements. The excitation wavelength was varied between 270 nm and 390 nm in 20 nm intervals until the greatest intensity emission was detected. The emission spectra ranges started at 20 nm to the red of the chosen excitation wavelength up to 780 nm. Scan speed was set at “Very Fast” with both the slit widths set to 1.5 mm.
All data were collected on a SHIMAZDU Spectrofluorometer RF-5301PC. Solutions of the respective compounds were prepared in acetonitrile at approximately 1 mM concentration. Solutions (4 mL) were added to a freshly washed quartz cuvette for measurements. The monitored emission wavelength was set using the high intensity emission from the respective molecule. The scanning range was from 220 nm through 770 nm. Scan speed was set at “Very Fast” with both the slit widths set to 1.5 mm.
Excitation/emission data for compounds 6b, 7b, 8b, 15b, 16b, and 17b were collected using the methods described in Example 3 but using a lower concentration of acetonitrile (10 μM). Compounds 15b, 16b and 17b and their parent molecules (6b, 7b and 8b) all luminesce in the visible range and their optical properties are described in Table 4. […] The wavelength of λex for the excitation scan corresponds to excitation to S1, which leads to emission. This λex for all the molecules were red shifted, or shifted to the direction of longer wavelengths, from the peak absorption by an average 40 nm.

HeLa cells = assay: Anti-proliferation (MTS) assay, HeLa cells, 72 hours; assay type: cell-based, human; conditions: 1 nM to 100 μM
Protocol: To determine whether long-term exposure to each compound could be toxic to cells, Hela cells were treated with varying concentrations of Compounds 16b, 15b and 17b for 72 hours. An anti-proliferation protocol was carried out by testing chosen compounds on the growth of the human cervical cancer cell lines. HeLa cells were cultured in their respective media supplemented with 10.0% FBS (fetal bovine serum) and 1.0% Pen/Strep. Cells (1,000 cells/100 μL per well) were plated in a 96-well culture plate (TC treated, Greiner) and incubated for 24 h. 50 μL (DMSO <1%) of the compound at final concentrations 100 μM, 10 μM, 1 μM, 100 nM, 10 nM, and 1 nM were added to the appropriate wells. Triplicates wells were performed for each compound, on three identical plates.
After incubation of the cells, at 37° C. in a humidified atmosphere of 5% CO2 for 72 hours, the cells were stained and incubated with MTS (3-(4,5-dimethylthiazol-2-yl)-5-(3-carboxymethoxyphenyl)-2-(4-sulfophenyl)-2H-tetrazolium) reagent in the presence of PMS (phenazine methosulfate) reagent for 2 hours to determine cell viability. An MTS assay is based on the reduction of the MTS tetrazolium compound by viable cells to generate a colored formazan dye that is soluble in cell culture media. The absorbance of each well was taken at 490 nm using a multimode plate reader (FlexStation 3, Molecular Devices, San Diego, Calif.). GraphPad Prism was used to analyze transposed data to determine the percent viability. […] Each compound was tested in at least triplicate.

[4] = Photophysical analysis: absorption, excitation and emission at 10 μM (Example 5); assay type: physicochemical; conditions: EtOH at 10 μM

## O=S(=O)([O-])c1ccc2c(c1)-c1cc(-c3cccc4ccccc34)ccc1S2(=O)=O.[Na+] [Compound 17b, sodium 8-(naphthalen-1-yl)dibenzo[b,d]thiophene-2-sulfonate 5,5-dioxide]
[1]
  φ (quantum yield): 0.55
[2]; 120 min, excitation 350 nm, emission approximately 400 nm
  luminescence intensity in cells: slight luminescence
[2]; 120 min, merged bright field and UV images
  location of luminescence in the cell: luminescence is clearly identified within the nucleus of the cell
[2]; FIG. 14 panel G
  effect on cell morphology: seemed to influence the morphology of HeLa cells
[3]
  log εex (molar extinction coefficient at excitation wavelength): 4.36 M^−1 cm^−1
[3]; acetonitrile at 10 μM
  λabs: 250 nm
  λem: 421 nm
[3]; acetonitrile at 10 μM (footnotes a,b)
  λex (excitation wavelength): 274 nm
[3]; calculated from excitation wavelength, acetonitrile at 10 μM
  Stokes Shift: 147 nm
[3]; footnotes a,g: acetonitrile at 10 μM / EtOH at 10 μM
  λex: 274 nm
HeLa cells
  cytotoxicity / decrease in cell viability: do not show any decrease in cell viability at any concentration tested; also recorded: no observed cytotoxicity
[4]
  log εmax (maximum molar extinction coefficient): 4.67 M^−1 cm^−1
  λem: 428 nm
